Structures can show the parent of a compound that is named as a salt.
Legend:
CFY male rats [1] = experiment: liver protecting effect: allyl alcohol intoxication followed by treatment with the compounds under test; type: in vivo, rat (CFY male); details: compound 100 mg/kg of body-weight, after 24 hours, before 1.81±0.43, allyl alcohol 4.16±1.63
Protocol: (§1) In order to investigate the liver protecting effect, the compounds were tested at CFY male rats with 200 to 240 g of body-weight after a starvation for 18 hours.
(§2) An experimental liver damage was elicited by using carbon tetrachloride, allyl alcohol or galactosamine. The activity of the serum glutamate-oxalacetate-transaminase (SGOT), the triglyceride (TG) content of the liver as well as the histological picture of the liver were studied.
(§3) Liver damaging agents (1.5 g/kg of body-weight of carbon tetrachloride orally; 0.75 g/kg of body-weight of galactosamine intraperitoneally) were administered to the starved animals, whereupon the animals received the compound under test in a dose of 100 mg/kg of body-weight intraperitoneally after 6 hours.
(b) The results of the allyl alcohol intoxication followed by treatment with the compounds under test are as follows:
After 24 hours, the animals were killed and the activity of the serum glutamate-pyruvate-transaminase (SGPT) was determined. After a treatment with allyl alcohol, the SGPT level was increased from a value of 1.81±0.43 μmoles/ml.h. to 4.16±1.63 μmoles/ml. h. This increase was diminished to 2.84±0.97 μmoles/ml.h. by a treatment with a 100 mg/kg of body-weight dose of the compound described in Example 1.

[2] = acute toxicity investigation (LD50); details: mouse, in vivo, mice
Protocol: The compounds prepared were subjected to acute toxicity investigations. For this purpose, the compounds under test were dissolved in an aqueous sodium carbonate solution and administered intraperitoneally (i.p.) or intravenously (i.v.) to the animals (40 days old CFLP female mice).
Some characteristic LD50 values of the compounds of the invention are as follows: […]

CFY male rats [3] = experiment: liver protecting effect: carbon tetrachloride intoxication followed by treatment with the compounds under test; type: in vivo, rat (CFY male); details: CCl4 1.5 g/kg orally, compound 100 mg/kg i.p. after 6 hours; for TG (triglyceride content of the liver): control 40 ± 8, CCl4 alone 86 ± 17; for SGOT activity: control 81.7 ± 16, CCl4 alone 269.0 ± 14
Protocol: as §1, §2, §3
(a) The results of the carbon tetrachloride intoxication followed by treatment with the compounds under test are as follows: […]

CFY male rats [4] = experiment: liver protecting effect: galactosamine damage followed by treatment with the compounds under test (histology); type: in vivo, rat (CFY male); details: galactosamine 0.75 g/kg i.p., compound i.p. 6 hours later

Row | Compound | TG (triglyceride content of the liver) (CFY male rats [3]) [µg/mg protein] | SGOT activity (CFY male rats [3]) [unit/liter] | also measured
1 | CC1(C)SC(c2ccc([N+](=O)[O-])o2)N[C@H]1C(=O)O (stereo partly drawn) [Example 1, 5,5-Dimethyl-2-(5-nitro-2-furyl)-thiazolidine-4(S)-carboxylic acid] | 51 ± 15 | 224.0 ± 14 | SGPT level (activity of the serum glutamate-pyruvate-transaminase) (CFY male rats [1]): 2.84 ± 0.97 µmol/mL/h; LD50 ([2]; iv): 2190 mg/kg; number of focally appearing parenchymal necroses (CFY male rats [4]): diminished; severity of the alterations characteristic of the galactosamine hepatitis (CFY male rats [4]): diminished
2 | CC1(C)SC(c2ccco2)N[C@H]1C(=O)O (stereo partly drawn) [Example 2, 5,5-Dimethyl-2-(2-furyl)-thiazolidine-4(S)-carboxylic acid] | 84 ± 6 | 229.0 ± 14 | number of focally appearing parenchymal necroses (CFY male rats [4]): diminished; severity of the alterations characteristic of the galactosamine hepatitis (CFY male rats [4]): diminished
3 | Cn1cccc1C1N[C@@H](C(=O)O)C(C)(C)S1 (stereo partly drawn) [Example 4, 5,5-Dimethyl-2-(N-methyl-2-pyrrolyl)thiazolidine-4(S)-carboxylic acid] | 114 ± 24 | 241.0 ± 21 | –
4 | CC1(C)SC(c2cccnc2)N[C@H]1C(=O)O (stereo partly drawn) [Example 5, 5,5-Dimethyl-2-(3-pyridyl)-thiazolidine-4(S)-carboxylic acid] | 61 ± 14 | 243.0 ± 21 | –
5 | CC1(C)SC(c2ccncc2)N[C@H]1C(=O)O (stereo partly drawn) [Example 6, 5,5-Dimethyl-2-(4-pyridyl)-thiazolidine-4(S)-carboxylic acid] | 88 ± 20 | 250.0 ± 13 | –
6 | CC1(C)SC(c2cc3ccccc3o2)N[C@H]1C(=O)O (stereo partly drawn) [Example 7, 2-(2-Benzofuryl)-5,5-dimethylthiazolidine-4(S)-carboxylic acid] | 61 ± 13 | 224.0 ± 14 | –
7 | CC1(C)SC(c2ccc3c(c2)CCC3)N[C@H]1C(=O)O (stereo partly drawn) [Example 8, 5,5-Dimethyl-2-(5-indanyl)-thiazolidine-4(S)-carboxylic acid] | 76 ± 10 | 234.0 ± 23 | –
8 | CC1(C)SC(c2cccc([N+](=O)[O-])c2)N[C@H]1C(=O)O (stereo partly drawn) [Example 9, 5,5-Dimethyl-2-(3-nitrophenyl)-thiazolidine-4(S)-carboxylic acid magnesium salt] | 83 ± 19 | 232.0 ± 34 | –
9 | CC1(C)SC(c2ccc(F)cc2)N[C@H]1C(=O)[O-].[K+] (stereo partly drawn) [Example 10, 5,5-Dimethyl-2-(4-fluorophenyl)-thiazolidine-4(S)-carboxylic acid and potassium salt] | 81 ± 11 | 227.0 ± 40 | –
10 | CSc1ccc(C2N[C@@H](C(=O)O)C(C)(C)S2)cc1 (stereo partly drawn) [Example 11, 5,5-Dimethyl-2-(4-methylmercaptophenyl)-thiazolidine-4(S)-carboxylic acid] | 70 ± 14 | 235.0 ± 19 | –
11 | CC1(C)SC(CO)N[C@H]1C(=O)O (stereo partly drawn) [Example 14, 5,5-Dimethyl-2-hydroxymethylthiazolidine-4(S)-carboxylic acid] | – | – | LD50 ([2]; ip): 5000 mg/kg
12 | CC(=O)N1[C@@H](c2ccc(Cl)cc2)SC(C)(C)[C@@H]1C(=O)O [Example 22, 3-Acetyl-2(R)-(4-chlorophenyl)-5,5-dimethylthiazolidine-4(S)-carboxylic acid] | – | – | LD50 ([2]; ip): 550 mg/kg
13 | CC(=O)N1[C@@H](C(=O)O)C(C)(C)S[C@H]1c1ccccc1 [Example 27, 3-Acetyl-5,5-dimethyl-2(S)-phenylthiazolidine-4(S)-carboxylic acid] | – | – | LD50 ([2]; ip): 1500 mg/kg
14 | CC(=O)N1[C@@H](C(=O)O)C(C)(C)S[C@H]1c1ccc([N+](=O)[O-])o1 [Example 30, 3-Acetyl-5,5-dimethyl-2(S)-(5-nitro-2-furyl)-thiazolidine-4(S)-carboxylic acid] | – | – | LD50 ([2]; ip): 2500 mg/kg
15 | Oc1cc(O)c2c(c1)O[C@H](c1ccc(O)c(O)c1)[C@@H](O)C2 [catergen, (+)2-(3,4-dihydroxyphenyl)-3,5,7-chromanetriol, reference compound] | 77 ± 7 | 241.0 ± 23 | –
